Test results: US20250041329A1, “ACIDIC POLYMER COMPOSITIONS AND METHODS OF USE THEREOF” (NexEos Diagnostics, Inc., priority 2023, published 2025)
Read-outs that look alike come from different tables or passages of the source.

T1: eMBP1 (Homo sapiens, UniProt P13727)
T1 construct: the pro-piece is removed during granule maturation in the eosinophilic leukocyte to convert pro-eMBP1 to eMBP1
T1 sequence (P13727 106-222): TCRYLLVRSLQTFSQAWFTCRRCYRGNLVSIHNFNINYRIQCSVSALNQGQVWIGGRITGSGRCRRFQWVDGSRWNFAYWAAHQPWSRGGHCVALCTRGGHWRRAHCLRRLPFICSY


Assays:
[1] = biological target: T1, eMBP1; assay: eMBP1 neutralization assay; format: cell-based; conditions: for Hill Slope: eMBP1 neutralization curve fit; for IC50: eMBP1 neutralization potency
Description: Methods: The goal of the investigation is to design and test a peptide product to neutralize and, thus, mitigate toxic effects of eosinophil granule proteins as a treatment for eosinophil-related diseases. Specifically, one aim is to test various polymers of acidic amino acids (i.e., glutamate and aspartate) for their ability to neutralize eMBP1 and compare their potencies to those of the pro-piece of pro-eosinophil major basic protein 1 (pro-eMBP1) as well as various heparins, i.e., low molecular weight heparin, high molecular weight heparin, and unfractionated heparin.
Because pro-piece (PP) can neutralize the toxicity of eMBP1, we reasoned that a careful study of the carbohydrate and acidic peptide structures might elucidate the comparative functions of these domains and lead to an effective eMBP1 inhibitor. We obtained heparins and polymers of the acidic amino acids, glutamic and aspartic, and compared their potencies in the eMBP1 neutralization assay.

[2] = biological target: T1, eMBP1; assay: Inhibition of eMBP1-stimulated histamine release from mast cells; format: cell-based; conditions: each inhibitor 50 μg/ml; eMBP1 10^−6 M; rat peritoneal mast cells; FIGS. 3A-3B
Description: (§1) Methods: To determine if the compounds shown in Table 2 had the ability to inhibit eMBP1 in a different assay, the compounds were tested for their ability to inhibit eMBP1-stimulated histamine release from mast cells. Peritoneal cells from male rats were harvested, enriched by centrifugation through a cushion of 38% bovine serum albumin (with purities up to about 90%), and stimulated with eMBP1. As expected from previous work, eMBP1 at a concentration of 10^−6 M stimulated histamine release. Specifically, approximately 63% of total histamine was released (as determined by boiling the rat mast cells), and 84% was released in comparison to the amount released by compound 48/80 at 0.1 μg/ml.
In order to test inhibition of eMBP1-stimulated histamine release, each inhibitor was provided as a concentration of 50 μg/ml. Polyglutamic acid (Sigma P4761) in the molecular weight range of 15-50 kDa was utilized for testing.

[3] = cited from earlier work
[4] = test system: mast cells; assay: Histamine release from mast cells stimulated with eMBP1; format: cell-based, rat; conditions: eMBP1 10^−6 M
Description: as §1

[5] = IC50 molar concentration, read-out: IC50

Row | Hill Slope [1] | IC50 [1] [µg/mL] | IC50 [1, 5] [nM] | Molecule | further results
1 | 3.061 | 4.301 | 187 | α poly-L-aspartic acid [α poly-L-Asp 23 kDa] | –
2 | 11.5 | 3.317 | < 4.74 | γ polyglutamic acid [γ poly-Glu >700 kDa] | –
3 | 2.621 | 4.525 | 37.7 | α poly-L-glutamic acid [α poly-L-Glu 120 kDa] | –
4 | 2.786 | 5.118 | 155 | α poly-L-glutamic acid [α poly-L-Glu 33 kDa] | –
5 | – | – | – | Polyglutamic acid | inhibition of eMBP1-stimulated histamine release [2]: roughly comparably and more potently than unfractionated heparin and both glycosylated and unglycosylated pro-piece
6 | 2.534 | 4.62 | > 462 | γ polyglutamic acid [γ poly-Glu <10 kDa] | –
7 | 2.929 | 4.817 | 838 | α poly-L-aspartic acid [α poly-L-Asp 5.75 kDa] | –
8 | 2.177 | 19.6000 | 16300 | γ polyglutamic acid [γ poly-Glu 1.2 kDa] | –
9 | 2.581 | 6.965 | 2680 | α poly-L-glutamic acid [α poly-L-Glu 2.6 kDa] | –
10 | 2.808 | 14.3 | 12400 | α poly-L-aspartic acid [α poly-L-Asp 1.15 kDa] | –
11 | – | – | – | N[C@@H](CC(=O)O)C(=O)O [monomer aspartic acid, aspartic acid, reference compound] | pKa [3]: about 1.92; eMBP1 inhibitory activity (in words) ([1]; eMBP1 neutralization, Table 2 / FIG. 1): devoid of eMBP1 inhibitory activity
12 | 3.499 | 5.961 | 662 | α poly-L-glutamic acid [α poly-L-Glu 9 kDa] | –
13 | 2.445 | 5.197 | 157 | α poly-D-glutamic acid | –
14 | 3.202 | 6.158 | 821 | α poly-L-glutamic acid [α poly-L-Glu 7.5 kDa] | –
15 | – | – | – | eMBP1: eosinophil major basic protein-1, 13.8 kDa single polypeptide of the eosinophil granule core; stimulus in the assays (protein, UniProt P13727 17-222, looked up, Bone marrow proteoglycan, eosinophil major basic protein-1, 13.8 kDa single polypeptide of the eosinophil granule core; stimulus in the assays) Bone marrow proteoglycan: LHLRSETSTFETPLGAKTLPEDEETPEQEMEETPCRELEEEEEWGSGSEDASKKDGAVESISVPDMVDKNLTCPEEEDTVKVVGIPGCQTCRYLLVRSLQTFSQAWFTCRRCYRGNLVSIHNFNINYRIQCSVSALNQGQVWIGGRITGSGRCRRFQWVDGSRWNFAYWAAHQPWSRGGHCVALCTRGGHWRRAHCLRRLPFICSY | histamine released in comparison to the amount released by compound 48/80 ([4]; compound 48/80 at 0.1 μg/ml): 84%; histamine released, of total histamine ([4]; total determined by boiling the rat mast cells): approximately 63%
